The text below walks through data of patent US20100291543A1, “HOMOGENEOUS IN VITRO FEC ASSAYS AND COMPONENTS” (priority 2007, published 2010).

The target of data set [1] is α and ω fragments of TEM-1 beta-lactamase (Escherichia coli, UniProt P62593, A182V/V82I). The class given is biochemical, E. coli. How it is done:
Nitrocefin (Merck, Australia) is a colorimetric substrate of TEM-1 beta-lactamase that changes colour from yellow to red (OD492) following hydrolysis of the β-lactam ring. […] Assays were performed using a 96-well flat bottom cell-culture plate (TPP, Australia). Nitrocefin stock solutions of 200 or 600 μM were prepared in 50 mM NaH2PO4; 150 mM NaCl; 5% DMSO (Sigma, Australia) pH 7. For each 200 μl reaction, 100 μl of the nitrocefin stock was added to 100 μl of enzyme fragments (with or without Ni^2+) in 50 mM NaH2PO4 150 mM NaCl pH 7. Depending on the final signal required, the concentration of enzyme fragments used per well ranged from 40 nM to 200 nM and the final concentration of the Ni^2+ analyte from 100 μM or 200 μM. Assay components were mixed well by pipetting, incubated for 5 minutes at room temperature. Kinetics of the nitrocefin hydrolysis were read at 492 nm using a SpectraMax190 (Molecular Devices, USA).
In an attempt to improve the signal to noise ratio of forced α and ω fragments complementation, the effect of different buffer additives such as solvents, BSA, detergents, protein denaturants and salts were investigated. […] Assays were performed as described herein.
As a low concentration of solvent could partially denature the enzyme fragments, it was investigated whether a small amount of ethanol, isopropanol, methanol, DMSO and acetonitrile would reduce natural fragment complementation and increase the signal to noise ratio. The final concentrations of each solvent tested were 15%, 7.5%, 3.75%, 1.875%, […] and 0%. Kinetics of the complementation assays was read at 492 nm for 30 minutes. The signal/noise ratio was then calculated according to the maximum rate (mOD/min) from SoftmaxPro. […]
Detergent is widely used to reduce protein-protein interaction or ELISA background; using small amount might help preventing the natural fragment complementation by keeping two fragments apart then increased the signal/noise ratio. […] Reading data collecting time was 30 minutes. The signal/noise ratio was then calculated according to the maximum rate (mOD/min) from SoftmaxPro.
To test the effect of protein denaturants on enzyme fragment complementation, nitrocefin activity assays were performed using a matrix of fragment, substrate and NiSO4 concentrations in the presence of urea or guanidine hydrochloride. In preliminary assays, the complementation of 40 nM fragments was tested in concentrations of urea ranging from 2 M to 62.5 mM and in concentrations of GuHCl that ranged from 1M to 31.25 mM. The assay was prepared as follows: 40 nM of each fragment was added to a two-fold dilution series of urea [from 2 M urea 50 mM NaH2PO4 150 mM NaCl pH7 to 62.5 mM urea 50 mM NaH2PO4 150 mM NaCl pH7] or guanidine hydrochloride [from 1 M GuHCl 50 mM NaH2PO4 150 mM NaCl pH7 to 31.25 mM GuHCl 50 mM NaH2PO4 150 mM NaCl pH7] in duplicate. To the first set of wells, NiSO4 was added to a final concentration of 100 μM, whereas the second set contained no NiSO4. The plate was incubated for 5 minutes and the kinetics read at 492 nm using a SpectroMax reader.

The target of data set [2] is human IgG (human). Nature of the data set: surface plasmon resonance, same conditions as BLω-ProG.
Data set [3] deals with rabbit hyper-immune serum (anti-HSV-1 peptide). The class given is biochemical. Particulars: with BLα-HSV1 (5 nM), hyper-immune serum 1:100.
The subject of data set [4] is human IgG. Kind of data set: Surface plasmon resonance binding kinetics for human IgG. Particulars: SPR. From the text:
To confirm that the Protein G moiety of BLω-ProG was functional and suitable for testing in our HA format we assessed its binding kinetics for human IgG using surface plasmon resonance. […] A commercially available recombinant protein G, truncated to eliminate binding to human serum albumin, was included as a positive control.
On the technique in general: SPR reads the build-up and loss of mass on a sensor chip optically.

Data set [5] is described as follows: FPLC gel filtration (aggregation) of purified fragments. The class given is physicochemical. Particulars: Purification Strategy: Denaturing CRF Ni-NTA. The text has this: In some cases, following affinity purification of the enzyme fragments, pooled eluates were subjected to size exclusion chromatography using a Superdex200GL column (Amersham cat. 17-5175-01) under the control of a DuoFlow chromatography system (BioRad cat. 760-0037). Gel filtration was used for either polishing of purified enzyme fragments (removal of contaminating proteins) or to determine the proportion of monomeric versus aggregated enzyme fragments after on-column refolding. The protocol was as follows: equilibration with 2 CV of 50 mM NaH2PO4 150 mM NaCl, pH7 at 0.6 ml/min; injection of 250-500 μl of sample at 0.6 ml/min; and isocratic flow of 1 CV of 50 mM NaH2PO4 150 mM NaCl, pH 7 at 0.6 ml/min. See FIG. 7 for exemplary results.
Background: In gel filtration, larger molecules generally elute earlier.

The format of data set [6] is physicochemical. How it is done:
The pellet from a 250 ml overnight induction was lysed in 25 ml of [6 M GuHCl-100 mM NaH2PO4 10 mM Tris pH 8] followed by a 1-hour incubation at 4° C. with shaking at 100 rpm. To enhance lysis, the suspension was sonicated in an ice bath for 5 cycles of 30 seconds on/30 seconds off using a Branson 250 sonifier. After sonication, the lysate was centrifuged at 12,000×g for 30 min (4° C.) and then passed through a 0.2 μm filter to remove cellular debris.
Recombinant His-tagged proteins were purified using a 1 ml HisTrap HP column (Amersham cat. 17-5247-01) under the control of a DuoFlow chromatography system (BioRad cat. 760-0037). The HisTrap column was equilibrated with 10 column volumes (CV) of 8 M urea 100 mM NaH2PO4 10 mM Tris pH 7.5 at a flow rate of 1 ml/min. Cleared E. coli lysates were then loaded onto the column using a Model EP-1 Econopump (BioRad cat. 731-8142) at 0.5 ml/min. The column was washed with 10 CV of 8 M Urea 100 mM NaH2PO4 10 mM Tris pH 6.3. Bound protein was refolded over a 60 CV gradient from 8 M Urea 100 mM NaH2PO4 10 mM Tris 200 mM L-arginine 100 μM GSSG pH 7.5 to 100 mM NaH2PO4 10 mM Tris 200 mM L-arginine 100 μM GSSG pH 7.5 at 1 ml/min. Histidine-tagged proteins were eluted with 10 CV of 250 mM imidazole 50 mM NaH2PO4 150 mM NaCl pH 8, and analysed by PAGE, western blotting, gel filtration and mass spectroscopy.

[7] abbreviates: Purification Strategy: Denaturing CRF Ni-NTA.

Substitutions are numbered along the chain they refer to. Numbers in names are those of the source. Where “and” joins values, the source holds several entries; their conditions need not be identical. Equal values may be shown once. Read-outs that look alike come from different tables or passages of the source.

Consider `C[S+](C)[O-]` [DMSO], for which the “concentration at which optimal signal to noise ratio was achieved” value (“concentration … to noise ratio was achieved” for short) in data set [1] is 15%.
With `CC#N` [acetonitrile], the “concentration … to noise ratio was achieved” value in data set [1] (solvents and detergents) is 3.75%.
On to `CCO` [ethanol], for which, in data set [1], the “concentration … to noise ratio was achieved” value came to 3.75%; the signal/noise ratio was 7.1 and 8.4 and 8.5 and 5.4.
For `c1c[nH]cn1` [imidazole], the “concentration … to noise ratio was achieved” value in data set [1] (imidazole) is on record as 12.5 mM. In addition, the signal/noise ratio is listed as 5.2 in data set [1] (imidazole final concentration 6.25 mM); 5.3 in data set [1] (imidazole final concentration 12.5 mM); 3.7 in data set [1] (imidazole final concentration 25 mM); 2.1 in data set [1] (imidazole final concentration 50 mM); 0.8 in data set [1] (imidazole final concentration 100 mM).
As to `CC(C)O` [isoproponal, isopropanol], the “concentration … to noise ratio was achieved” value in data set [1] (solvents and detergents) is given as 3.75%.
As to `CO` [methanol], in data set [1] (solvents and detergents), the “concentration … to noise ratio was achieved” value amounted to 7.5%.
Take `NC(N)=O` [urea]: in data set [1] (denaturant), the “concentration … to noise ratio was achieved” value is 0.5 M.
Consider Triton-X100, for which the “concentration … to noise ratio was achieved” value in data set [1] came to 0.3%.
As to Tween-20, in data set [1] (solvents and detergents), the “concentration … to noise ratio was achieved” value is listed as 0.15%.
On to “commercially available recombinant protein G, truncated to eliminate binding to human serum albumin”, for which the dissociation constant (Kd) in data set [2] came out at 483 nM.

B1: BLω-ProG: omega fragment fused via (G4S)3 linker to C2 domain of protein G, SEQ ID NO: 83 (protein)
chain: MHHHHHHGGGGSGSTYKLVINGKTLKGETTTEAVDAATAEKVFKQYANDNGVDGEWTYDDATKTFTVTETSGGGGSGGGGSGGGGSASELLTLASRQQLIDWMEADKVAGPLLRSALPAGWFIADKSGAGERGSRGIIAALGPDGKPSRIVVIYTTGSQATMDERDRQIAEIGASLIKHW
modifications: Protein G subunit omega reporter fragment displaying sequence of BLaProGconstruct
On to B1, for which, in data set [3], the level of activity result is “highest level of activity”. Besides, in data set [4], the rate of association entry is recorded as “slower rate of association than the C2 domain” and the rate of dissociation entry is listed as “slower rate of dissociation”. Moreover, the Kd in data set [4] (read-out: dissociation constant (KD)) stood at 81 nM.

B2: PB11.2: alpha fragment construct containing substitutions V74T and M182T, SEQ ID NO: 6 (protein)
chain: MHPETLVKVKDAEDQLGARVGYIELDLNSGKILESFRPEERFPMMSTFKTLLCGAVLSRIDAGQEQLGRRIHYSQNDLVEYSPVTEKHLTDGMTVRELCSAAITMSDNTAANLLLTTIGGPKELTAFLHNMGDHVTRLDRWEPELNEAIPNDERDTTTPVAMATTLRKLLTGGGGGSHHHHHH
modifications: PB11.2 construct
On to B2, for which the “FPLC (aggregation)” value in data set [5] was “<+”.

B3: PB15: rearranged full-length (FL) construct of Beta-lactamase, SEQ ID NO: 21 (protein)
chain: MHMHHHHHHEERFPMMSTFKVLLCGAVLSRIDAGQEQLGRRIHYSQNDLVEYSPVTEKHLTDGMTVRELCSAAITMSDNTAANLLLTTIGGPKELTAFLHNMGDHVTRLDRWEPELNEAIPNDERDTTMPVAMATTLRKLLTGELLTLASRQQLIDWMEADKVAGPLLRSALPAGWFIADKSGAGERGSRGIIAALGPDGKPSRIVVIYTTGSQATMDERNRQIAEIGASLIKHWGSGSGHPETLVKVKDAEDQLGARVGYIELDLNSGKILESFRH
modifications: PB15
B3: the “Purification (solubility)” value was “>+++” in data set [6] (setting [7]) and “<+” in data set [6] (Purification Strategy: Native Ni-NTA).

B4: PB15.3: rearranged construct of Beta-lactamase with substitutions M182T, I208T and F230Y, SEQ ID NO: 22 (protein)
chain: B3 chain with M129T, I155T, F177Y
modifications: PB15.3 (M182T, I208T, F230Y)
On to B4, for which the “Purification (solubility)” value in data set [6] (setting [7]) is on record as “>+++”.

Usually Kd stands for the free concentration of one partner at which half of the binding sites on the other are occupied at equilibrium, for simple one-to-one binding.
